Experimental findings from ChEMBL document CHEMBL1139192, “Novel bis(indolyl)maleimide pyridinophanes that are potent, selective inhibitors of glycogen synthase kinase-3” (Bioorg Med Chem Lett, 2007) are described below.

For assay [1], the target named is T1, Dual specificity mitogen-activated protein kinase kinase 7 (Homo sapiens) (UniProt O14733).
T1 sequence (whole entry): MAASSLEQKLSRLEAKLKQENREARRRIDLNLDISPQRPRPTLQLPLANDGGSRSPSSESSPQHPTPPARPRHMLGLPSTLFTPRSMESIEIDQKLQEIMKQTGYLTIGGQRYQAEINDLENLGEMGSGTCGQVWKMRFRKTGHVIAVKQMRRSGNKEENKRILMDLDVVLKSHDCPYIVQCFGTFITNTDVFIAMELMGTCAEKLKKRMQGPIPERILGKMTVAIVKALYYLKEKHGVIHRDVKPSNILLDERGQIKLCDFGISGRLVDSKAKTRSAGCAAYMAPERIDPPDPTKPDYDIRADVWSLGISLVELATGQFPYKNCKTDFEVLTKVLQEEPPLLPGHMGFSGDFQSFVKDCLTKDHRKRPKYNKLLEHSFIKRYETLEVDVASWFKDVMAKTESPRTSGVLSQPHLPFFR
The assay can be described thus: Inhibition of human MKK7-beta at 1 uM relative to control; values are per cent of control.

Assay [2] addresses Mitogen-activated protein kinase 11 (Homo sapiens) (UniProt Q15759). As to the kind of experiment: Inhibition of human SAPK2b at 1 uM relative to control; values are per cent of control.
In assay [3] the target is Hepatocyte growth factor receptor (Homo sapiens) (UniProt P08581). The assay can be described thus: Inhibition of human Met at 1 uM relative to control; values are per cent of control.
Assay [4] has as its target MAP kinase-activated protein kinase 2 (Homo sapiens) (UniProt P49137). The assay can be described thus: Inhibition of MAPKAPK2 at 1 uM relative to control; values are per cent of control.
Assay [5] addresses Ribosomal protein S6 kinase alpha-2 (Homo sapiens) (UniProt Q15349). The assay can be described thus: Inhibition of human Rsk2 at 1 uM relative to control; values are per cent of control.
In assay [6] the target is Serine/threonine-protein kinase PAK 2 (Homo sapiens) (UniProt Q13177). As to the kind of experiment: Inhibition of human PAK2 at 1 uM relative to control; values are per cent of control.
The target of assay [7] is T2, Protein kinase C iota type (Homo sapiens) (UniProt P41743).
T2 sequence (whole entry): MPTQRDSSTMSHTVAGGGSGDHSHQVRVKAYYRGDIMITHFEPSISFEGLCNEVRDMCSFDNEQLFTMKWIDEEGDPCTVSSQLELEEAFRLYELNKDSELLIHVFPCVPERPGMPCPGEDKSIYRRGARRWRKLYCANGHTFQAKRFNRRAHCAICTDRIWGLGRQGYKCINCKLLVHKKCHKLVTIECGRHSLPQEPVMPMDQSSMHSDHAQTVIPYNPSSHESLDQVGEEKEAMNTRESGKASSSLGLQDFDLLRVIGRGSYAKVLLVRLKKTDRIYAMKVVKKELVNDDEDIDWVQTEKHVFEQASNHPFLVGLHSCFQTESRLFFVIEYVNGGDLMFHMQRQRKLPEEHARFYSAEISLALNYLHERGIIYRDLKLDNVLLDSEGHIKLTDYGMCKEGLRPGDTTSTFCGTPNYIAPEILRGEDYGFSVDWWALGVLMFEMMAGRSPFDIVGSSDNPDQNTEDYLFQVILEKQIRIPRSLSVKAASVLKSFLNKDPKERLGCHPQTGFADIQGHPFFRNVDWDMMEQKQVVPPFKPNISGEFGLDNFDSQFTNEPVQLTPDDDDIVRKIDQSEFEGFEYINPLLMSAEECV
The assay can be described thus: Inhibition of human PKCiota at 1 uM relative to control; values are per cent of control.

The target in assay [8] is Tyrosine-protein kinase ABL2 (Mus musculus) (UniProt Q4JIM5). The assay can be described thus: Residual activity of mouse Arg at 1 uM relative to control.
The species entered for assay [9] is Homo sapiens. The assay can be described thus: Inhibition of human MAPK2 at 1 uM relative to control; values are per cent of control.
The species entered for assay [10] is Homo sapiens. The assay can be described thus: Residual activity of human PAR1B-alpha at 1 uM relative to control.
In assay [11] the target is Ribosomal protein S6 kinase alpha-1 (Homo sapiens, UniProt Q15418). As to the kind of experiment: Inhibition of human Rsk1 at 1 uM relative to control; values are per cent of control.
Assay [12] has as its target RAC-beta serine/threonine-protein kinase (Homo sapiens) (UniProt P31751). The assay can be described thus: Residual activity of human PKBbeta at 1 uM relative to control.
Assay [13] has as its target Protein kinase C alpha type (Homo sapiens) (UniProt P17252). The assay can be described thus: Residual activity of human PKCalpha at 1 uM relative to control.
Assay [14] concerns the target Tyrosine-protein kinase Blk (Mus musculus) (UniProt P16277). As to the kind of experiment: Inhibition of mouse Blk at 1 uM relative to control; values are per cent of control.
The next assay concerns Saccharomyces cerevisiae. The assay can be described thus: Residual activity of yeast CK1 at 1 uM relative to control.
In assay [15] the target is Insulin-like growth factor 1 receptor (Homo sapiens) (UniProt P08069). The assay can be described thus: Residual activity of human IGF1R at 1 uM relative to control.
The target of assay [16] is Serine/threonine-protein kinase Chk2 (Homo sapiens) (UniProt O96017). As to the kind of experiment: Inhibition of human CHK2 at 1 uM relative to control; values are per cent of control.
In assay [17] the target is Ribosomal protein S6 kinase alpha-3 (Homo sapiens) (UniProt P51812). The assay can be described thus: Inhibition of human Rsk3 at 1 uM relative to control; values are per cent of control.
Assay [18] deals with Tyrosine-protein kinase ABL1 (Mus musculus) (UniProt P00520). As to the kind of experiment: Residual activity of mouse Abl kinase at 1 uM relative to control.
Assay [19] has as its target Mitogen-activated protein kinase 8 (Homo sapiens) (UniProt P45983). The assay can be described thus: Inhibition of human JNK1alpha1 at 1 uM relative to control; values are per cent of control.
Assay [20] deals with Rho-associated protein kinase 2 (Rattus norvegicus) (UniProt Q62868). As to the kind of experiment: Residual activity of rat ROCK2 at 1 uM relative to control.
The target of assay [21] is Protein kinase C eta type (Homo sapiens) (UniProt P24723). As to the kind of experiment: Residual activity of human PKCeta at 1 uM relative to control.
For assay [22], the target named is Angiopoietin-1 receptor (Homo sapiens) (UniProt Q02763). The assay can be described thus: Residual activity of human Tie2 at 1 uM relative to control.
Chain of Angiopoietin-1 receptor (Homo sapiens) (Q02763 whole entry): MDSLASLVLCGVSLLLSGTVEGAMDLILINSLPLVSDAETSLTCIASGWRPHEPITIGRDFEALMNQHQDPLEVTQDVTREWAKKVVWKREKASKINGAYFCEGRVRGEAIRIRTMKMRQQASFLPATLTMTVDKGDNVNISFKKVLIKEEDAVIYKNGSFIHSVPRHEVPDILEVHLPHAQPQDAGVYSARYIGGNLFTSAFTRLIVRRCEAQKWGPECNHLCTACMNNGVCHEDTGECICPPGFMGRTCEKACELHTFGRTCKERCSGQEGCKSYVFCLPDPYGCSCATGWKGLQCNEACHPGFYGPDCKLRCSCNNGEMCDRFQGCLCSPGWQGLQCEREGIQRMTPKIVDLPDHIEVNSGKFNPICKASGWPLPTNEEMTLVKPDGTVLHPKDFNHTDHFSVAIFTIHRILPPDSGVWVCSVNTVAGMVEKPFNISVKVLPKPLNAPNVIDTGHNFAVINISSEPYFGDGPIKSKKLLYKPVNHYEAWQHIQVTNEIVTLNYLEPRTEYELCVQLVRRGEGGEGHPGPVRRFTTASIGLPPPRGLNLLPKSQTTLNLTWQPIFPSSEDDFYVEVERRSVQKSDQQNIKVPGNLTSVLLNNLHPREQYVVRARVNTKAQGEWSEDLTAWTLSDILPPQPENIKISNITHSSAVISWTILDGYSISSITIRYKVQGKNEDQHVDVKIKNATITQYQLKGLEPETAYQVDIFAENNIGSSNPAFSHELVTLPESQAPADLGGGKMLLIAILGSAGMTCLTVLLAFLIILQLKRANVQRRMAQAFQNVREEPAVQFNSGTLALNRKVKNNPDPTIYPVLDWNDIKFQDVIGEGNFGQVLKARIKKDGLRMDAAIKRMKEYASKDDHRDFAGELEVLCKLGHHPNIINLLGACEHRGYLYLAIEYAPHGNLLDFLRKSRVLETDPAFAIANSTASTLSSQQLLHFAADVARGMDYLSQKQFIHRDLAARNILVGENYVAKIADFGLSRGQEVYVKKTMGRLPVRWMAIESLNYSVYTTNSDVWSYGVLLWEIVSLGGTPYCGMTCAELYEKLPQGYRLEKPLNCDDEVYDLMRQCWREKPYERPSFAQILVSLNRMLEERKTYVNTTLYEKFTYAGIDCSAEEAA

Chain of Rho-associated protein kinase 2 (Rattus norvegicus) (Q62868 whole entry, looked up): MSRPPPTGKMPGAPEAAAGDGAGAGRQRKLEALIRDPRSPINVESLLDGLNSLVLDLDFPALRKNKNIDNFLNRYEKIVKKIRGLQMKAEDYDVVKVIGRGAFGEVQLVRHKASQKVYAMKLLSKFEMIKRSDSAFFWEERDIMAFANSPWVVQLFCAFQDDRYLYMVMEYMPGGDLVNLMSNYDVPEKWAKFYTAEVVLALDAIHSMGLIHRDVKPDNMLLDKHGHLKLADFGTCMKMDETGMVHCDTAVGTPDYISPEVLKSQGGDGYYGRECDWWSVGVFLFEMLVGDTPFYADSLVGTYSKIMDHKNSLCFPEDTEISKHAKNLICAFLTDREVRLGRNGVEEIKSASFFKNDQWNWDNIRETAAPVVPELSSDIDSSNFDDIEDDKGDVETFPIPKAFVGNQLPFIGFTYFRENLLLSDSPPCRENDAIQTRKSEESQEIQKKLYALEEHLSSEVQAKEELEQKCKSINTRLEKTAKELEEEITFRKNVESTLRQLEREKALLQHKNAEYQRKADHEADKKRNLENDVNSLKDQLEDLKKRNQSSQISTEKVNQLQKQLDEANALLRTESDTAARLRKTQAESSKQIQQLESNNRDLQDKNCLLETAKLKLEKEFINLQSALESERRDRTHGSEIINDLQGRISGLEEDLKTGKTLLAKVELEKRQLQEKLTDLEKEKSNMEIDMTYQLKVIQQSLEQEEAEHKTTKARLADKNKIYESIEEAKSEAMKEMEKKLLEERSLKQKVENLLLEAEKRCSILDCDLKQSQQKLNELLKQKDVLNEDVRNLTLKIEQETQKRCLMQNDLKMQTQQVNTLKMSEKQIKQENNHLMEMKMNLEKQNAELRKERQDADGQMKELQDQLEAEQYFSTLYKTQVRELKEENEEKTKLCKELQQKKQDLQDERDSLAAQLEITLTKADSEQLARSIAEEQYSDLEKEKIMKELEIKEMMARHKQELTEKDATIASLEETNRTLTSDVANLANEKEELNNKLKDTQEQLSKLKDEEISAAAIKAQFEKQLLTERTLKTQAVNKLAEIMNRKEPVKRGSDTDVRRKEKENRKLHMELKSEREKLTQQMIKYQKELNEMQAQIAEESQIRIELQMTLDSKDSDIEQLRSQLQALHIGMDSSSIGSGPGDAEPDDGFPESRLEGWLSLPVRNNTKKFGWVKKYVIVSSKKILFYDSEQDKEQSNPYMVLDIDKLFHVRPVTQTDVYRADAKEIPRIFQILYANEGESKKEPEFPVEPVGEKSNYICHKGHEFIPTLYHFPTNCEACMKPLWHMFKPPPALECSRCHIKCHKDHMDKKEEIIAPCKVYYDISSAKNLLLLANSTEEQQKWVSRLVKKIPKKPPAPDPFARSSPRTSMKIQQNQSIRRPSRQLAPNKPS
Chain of RAC-beta serine/threonine-protein kinase (Homo sapiens) (P31751 whole entry): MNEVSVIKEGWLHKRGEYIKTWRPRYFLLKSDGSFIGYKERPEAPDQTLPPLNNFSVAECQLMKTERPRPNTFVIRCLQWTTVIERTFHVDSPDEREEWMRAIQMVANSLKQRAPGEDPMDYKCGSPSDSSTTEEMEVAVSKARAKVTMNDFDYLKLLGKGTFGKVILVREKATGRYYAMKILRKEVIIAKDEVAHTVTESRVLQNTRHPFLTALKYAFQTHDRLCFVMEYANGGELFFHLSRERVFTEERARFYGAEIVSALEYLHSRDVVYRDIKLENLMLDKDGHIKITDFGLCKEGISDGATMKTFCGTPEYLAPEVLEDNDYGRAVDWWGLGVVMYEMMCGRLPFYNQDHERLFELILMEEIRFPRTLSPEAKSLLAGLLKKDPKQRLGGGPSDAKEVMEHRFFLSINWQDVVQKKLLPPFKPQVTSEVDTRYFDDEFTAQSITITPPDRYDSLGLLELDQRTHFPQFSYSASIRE
Chain of Tyrosine-protein kinase ABL1 (Mus musculus) (P00520 whole entry): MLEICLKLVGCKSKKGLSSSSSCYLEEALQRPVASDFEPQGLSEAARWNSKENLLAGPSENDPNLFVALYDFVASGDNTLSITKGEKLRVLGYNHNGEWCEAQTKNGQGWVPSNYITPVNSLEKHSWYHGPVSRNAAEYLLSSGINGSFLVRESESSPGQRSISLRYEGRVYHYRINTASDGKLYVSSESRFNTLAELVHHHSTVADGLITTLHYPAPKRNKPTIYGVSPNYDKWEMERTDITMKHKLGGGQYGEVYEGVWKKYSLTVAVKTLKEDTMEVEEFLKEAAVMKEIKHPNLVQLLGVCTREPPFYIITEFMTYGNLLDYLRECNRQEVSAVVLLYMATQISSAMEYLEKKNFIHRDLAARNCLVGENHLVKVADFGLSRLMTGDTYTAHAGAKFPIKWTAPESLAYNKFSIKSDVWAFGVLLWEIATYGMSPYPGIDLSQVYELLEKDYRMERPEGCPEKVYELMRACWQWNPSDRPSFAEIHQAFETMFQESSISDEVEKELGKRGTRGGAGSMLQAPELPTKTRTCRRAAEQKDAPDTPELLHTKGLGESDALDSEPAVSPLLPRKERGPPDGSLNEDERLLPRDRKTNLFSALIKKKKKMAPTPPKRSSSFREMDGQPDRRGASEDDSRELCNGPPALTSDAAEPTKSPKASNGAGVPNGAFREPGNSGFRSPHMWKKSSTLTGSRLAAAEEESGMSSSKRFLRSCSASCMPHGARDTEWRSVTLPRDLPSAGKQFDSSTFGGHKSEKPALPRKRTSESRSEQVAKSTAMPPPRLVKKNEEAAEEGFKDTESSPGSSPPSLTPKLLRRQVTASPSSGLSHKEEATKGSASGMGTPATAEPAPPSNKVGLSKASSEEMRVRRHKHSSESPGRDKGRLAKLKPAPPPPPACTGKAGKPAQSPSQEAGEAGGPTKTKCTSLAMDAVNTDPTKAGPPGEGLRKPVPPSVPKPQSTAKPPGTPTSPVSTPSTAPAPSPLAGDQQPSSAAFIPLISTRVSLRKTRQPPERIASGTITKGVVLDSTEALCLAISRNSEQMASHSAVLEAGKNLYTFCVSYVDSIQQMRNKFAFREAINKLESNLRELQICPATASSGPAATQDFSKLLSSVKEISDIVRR
Chain of Serine/threonine-protein kinase PAK 2 (Homo sapiens) (Q13177 whole entry): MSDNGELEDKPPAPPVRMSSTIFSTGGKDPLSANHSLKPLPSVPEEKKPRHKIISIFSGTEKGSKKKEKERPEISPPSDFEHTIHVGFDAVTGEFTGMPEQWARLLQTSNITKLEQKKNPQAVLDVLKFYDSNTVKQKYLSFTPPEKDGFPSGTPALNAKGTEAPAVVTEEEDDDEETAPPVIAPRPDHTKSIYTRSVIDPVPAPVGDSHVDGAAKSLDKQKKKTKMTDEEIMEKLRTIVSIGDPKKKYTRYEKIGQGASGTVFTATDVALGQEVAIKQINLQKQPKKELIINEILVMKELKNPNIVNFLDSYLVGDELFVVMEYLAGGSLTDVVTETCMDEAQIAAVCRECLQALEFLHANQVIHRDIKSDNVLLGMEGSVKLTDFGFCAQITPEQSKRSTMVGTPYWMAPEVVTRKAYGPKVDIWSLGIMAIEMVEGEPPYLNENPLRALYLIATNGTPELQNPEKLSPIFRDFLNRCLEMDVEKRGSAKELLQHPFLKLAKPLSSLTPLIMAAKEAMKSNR
Chain of Mitogen-activated protein kinase 11 (Homo sapiens) (Q15759 whole entry): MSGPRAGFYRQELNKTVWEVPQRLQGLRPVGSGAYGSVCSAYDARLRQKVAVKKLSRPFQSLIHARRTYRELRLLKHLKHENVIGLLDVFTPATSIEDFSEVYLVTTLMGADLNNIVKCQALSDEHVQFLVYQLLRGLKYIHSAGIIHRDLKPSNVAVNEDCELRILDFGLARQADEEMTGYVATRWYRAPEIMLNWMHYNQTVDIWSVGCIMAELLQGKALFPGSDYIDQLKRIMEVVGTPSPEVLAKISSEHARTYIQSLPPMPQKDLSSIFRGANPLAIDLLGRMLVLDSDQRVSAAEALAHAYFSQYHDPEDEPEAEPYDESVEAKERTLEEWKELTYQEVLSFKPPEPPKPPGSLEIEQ

On to `CN(C)c1cc2cc(n1)CCCn1cc(c3ccccc31)C1=C(C(=O)NC1=O)c1cn(c3ccccc13)CCC2`, for which the residual activity in assay [1] is 78%; in [2], 119%; in assay [3], 132%; in [4], 101%; in assay [5], 10%; in assay [6], 103%. Moreover, the residual activity is 109% in [7]; 129% in [8]; 104% in the assay listed under Homo sapiens [9]; 100% in the assay listed under Homo sapiens [10]; 15% in assay [11]; 118% in [12]. Also, the residual activity was 74% in assay [13]; 70% in assay [14]; 98% in the assay on Saccharomyces cerevisiae; 37% in assay [15]; 94% in assay [16]; 5% in [17]. Also, the residual activity in assay [18] turned out to be 108%; in [19], 105%; in assay [20], 92%; in [21], 117%; in assay [22], 109%.
With `O=C1NC(=O)C2=C1c1cn(c3ccccc13)CCCc1ccc(c(N3CCCC3)n1)CCCn1cc2c2ccccc21`, the residual activity came out at 85% in [1]; 99% in assay [2]; 132% in assay [3]; 63% in assay [5]; 102% in [6]; 97% in assay [7]. The residual activity in assay [8] came to 130%; in the assay filed under Homo sapiens [9] it was 88%; in the assay filed under Homo sapiens [10] it was 101%; in assay [11] it was 85%; in [12] it was 102%; in assay [13], 83%. Besides, the residual activity in assay [14] was determined as 91%; in [15] it was 106%; in [16], 91%; in assay [17] it was 25%; in assay [18], 110%; in assay [19], 104%. In addition, the residual activity amounted to 91% in assay [20], 90% in [21] and 107% in assay [22].
Take `O=C1NC(=O)C2=C1c1cn(c3ccccc13)CCCc1cc(nc(N3CCCC3)c1)CCCn1cc2c2ccccc21`: the residual activity in [1] is 97%; in assay [2] it was 114%; in [3] it was 129%; in assay [4], 108%; in assay [5], 12%; in assay [6], 100%. For the same compound, the residual activity in assay [7] worked out at 102%; in assay [8], 121%; in the assay listed under Homo sapiens [9], 92%; in the assay listed under Homo sapiens [10], 96%; in assay [11], 15%; in assay [12] it was 104%. Moreover, the residual activity in [13] is 82%; in [14] it was 74%; in the assay with Saccharomyces cerevisiae, 99%; in assay [15], 42%; in assay [16], 84%; in assay [17] it was 5%. Moreover, the residual activity in [18] worked out at 104%; in [19], 108%; in assay [20], 83%; in assay [21], 121%; in assay [22], 96%.
With `CN(C)c1nc2ccc1CCCn1cc(c3ccccc31)C1=C(C(=O)NC1=O)c1cn(c3ccccc13)CC2`, the residual activity in assay [1] worked out at 88%; in assay [2], 104%; in assay [3], 121%; in assay [4], 98%; in assay [5], 32%; in assay [6], 93%. Further, the residual activity in assay [7] was determined as 85%; in [8], 113%; in the assay filed under Homo sapiens [9] it was 102%; in the assay filed under Homo sapiens [10] it was 94%; in [11] it was 39%; in assay [12], 86%. In addition, the residual activity in [13] amounted to 68%; in [14], 109%; in the assay on Saccharomyces cerevisiae, 91%; in assay [15] it was 84%; in [16], 91%; in assay [17], 33%. Further, the residual activity in assay [18] came to 98%; in assay [19] it was 102%; in [20], 101%; in [21] it was 104%; in assay [22], 110%.
